Test results reported in ChEMBL document CHEMBL6120974, “Hydrazide-Based Class I Selective HDAC Inhibitors Completely Reverse Chemoresistance Synergistically in Platinum-Resistant Solid Cancer Cells” (J Med Chem, 2024).
Blank lines part the entries; values can stand above or below the compound they belong to. Activity calls are given as the source filed them. The rule behind the calls is not given here.

Key:
[1] = Lipophilicity, logD of the compound in 1-octanol/PBS buffer at pH 7.4 by HPLC/UV analysis; assay type: physicochemical; settings: octanol/water
[2] = target: Histone deacetylase 3 (Homo sapiens, UniProt O15379); test: Inhibition of HDAC3 (unknown origin)
[3] = system: Cal27CisR; test: Cytotoxicity against cisplatin resistant human Cal27CisR cells at < 10 uM assessed as reduction in cell viability incubated for 72 hrs by MTT assay; assay type: functional, cell-based
[4] = system: A2780 cisR; test: Inhibition of class I/6 HDAC (unknown origin) in cisplatin resistant human A2780 cisR cells at < 10 uM using Boc-Lys(epsilon-Ac)-AMC as substrate preincubated with compound for 18 hrs followed by substrate addition and measured after 3 hrs by NOVOstar microplate reader analysis; assay type: cell-based
[5] = target: T1, Histone deacetylase 4 (Homo sapiens, UniProt P56524); test: Inhibition of recombinant HDAC4 (unknown origin) using Bos-Lys(TFA)-AMC as substrate preincubated with compound for 5 mins and measured after 90 mins by NOVOstar microplate reader analysis
[6] = target: T2, Protein deacetylase HDAC6 (Homo sapiens) (UniProt Q9UBN7); test: (§1) Inhibition of N-terminal GST-tagged full length recombinant human HDAC6 (1 to 1215 end residues) expressed in sf9 cells at > 10 uM using ZMAL (Z-Lys(Ac)-AMC as fluorogenic substrate preincubated with compound for 60 mins followed by substrate addition and measured after 90 mins by fluorescence based microplate reader analysis relative to control; settings: time 150.0 min
T2 sequence (whole entry): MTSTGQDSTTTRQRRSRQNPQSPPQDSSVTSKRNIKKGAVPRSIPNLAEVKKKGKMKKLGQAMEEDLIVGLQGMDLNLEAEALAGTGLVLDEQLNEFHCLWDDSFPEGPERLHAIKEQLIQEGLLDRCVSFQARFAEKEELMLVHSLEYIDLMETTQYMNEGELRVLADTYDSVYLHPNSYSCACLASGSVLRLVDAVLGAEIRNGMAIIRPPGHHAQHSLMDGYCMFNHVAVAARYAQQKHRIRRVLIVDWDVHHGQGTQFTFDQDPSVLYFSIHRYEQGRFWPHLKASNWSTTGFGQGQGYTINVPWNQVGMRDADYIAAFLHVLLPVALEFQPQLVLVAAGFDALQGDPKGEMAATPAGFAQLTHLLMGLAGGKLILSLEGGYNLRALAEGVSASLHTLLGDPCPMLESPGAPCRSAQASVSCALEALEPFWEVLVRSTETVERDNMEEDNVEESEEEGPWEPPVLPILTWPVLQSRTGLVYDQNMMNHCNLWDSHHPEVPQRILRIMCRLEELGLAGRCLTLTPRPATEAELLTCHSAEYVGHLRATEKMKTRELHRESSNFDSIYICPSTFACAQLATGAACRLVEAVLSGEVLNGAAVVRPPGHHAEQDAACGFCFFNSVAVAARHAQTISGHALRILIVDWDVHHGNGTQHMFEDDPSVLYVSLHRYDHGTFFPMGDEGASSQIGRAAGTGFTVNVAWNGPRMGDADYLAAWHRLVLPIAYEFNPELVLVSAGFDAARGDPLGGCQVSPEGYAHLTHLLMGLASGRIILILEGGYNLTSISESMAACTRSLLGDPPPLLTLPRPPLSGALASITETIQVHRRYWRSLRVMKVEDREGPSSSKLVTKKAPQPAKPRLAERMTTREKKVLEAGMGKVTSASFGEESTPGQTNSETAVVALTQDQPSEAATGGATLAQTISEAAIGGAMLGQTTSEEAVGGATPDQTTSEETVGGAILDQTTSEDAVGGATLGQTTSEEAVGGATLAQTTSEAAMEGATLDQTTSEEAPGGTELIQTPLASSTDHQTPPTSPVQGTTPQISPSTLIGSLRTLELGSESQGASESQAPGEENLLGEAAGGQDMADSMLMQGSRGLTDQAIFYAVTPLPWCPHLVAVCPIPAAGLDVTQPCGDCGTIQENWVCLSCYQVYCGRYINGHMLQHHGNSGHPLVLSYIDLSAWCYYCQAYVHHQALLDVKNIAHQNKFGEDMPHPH

[7] = target: Histone deacetylase 3/Nuclear receptor corepressor 2 (HDAC3/NCoR2) (Homo sapiens) (UniProt O15379+Q9Y618); test: as §1, with “C-terminal His tagged human” for “N-terminal GST-tagged full length”, “HDAC3” for “human HDAC6”, “428” for “1215”, “residues)/N-terminal GST-tagged human NcoR2” for “residues)”, “at” for “at >”; settings: time 150.0 min
[8] = system: CAL-27; test: Cytotoxicity against human CAL-27 cells at < 100 uM assessed as reduction in cell viability incubated for 72 hrs by MTT assay; assay type: functional, cell-based
[9] = system: CAL-27; test: Inhibition of class I/6 HDAC (unknown origin) in human CAL-27 cells at < 10 uM using Boc-Lys(epsilon-Ac)-AMC as substrate preincubated with compound for 18 hrs followed by substrate addition and measured after 3 hrs by NOVOstar microplate reader analysis; assay type: cell-based
[10] = target: T3, Histone deacetylase 8 (Homo sapiens, UniProt Q9BY41); test: Inhibition of recombinant HDAC8 (unknown origin) using Bos-Lys(TFA)-AMC as substrate preincubated with compound for 5 mins and measured after 90 mins by NOVOstar microplate reader analysis
T3 sequence (Q9BY41 whole entry): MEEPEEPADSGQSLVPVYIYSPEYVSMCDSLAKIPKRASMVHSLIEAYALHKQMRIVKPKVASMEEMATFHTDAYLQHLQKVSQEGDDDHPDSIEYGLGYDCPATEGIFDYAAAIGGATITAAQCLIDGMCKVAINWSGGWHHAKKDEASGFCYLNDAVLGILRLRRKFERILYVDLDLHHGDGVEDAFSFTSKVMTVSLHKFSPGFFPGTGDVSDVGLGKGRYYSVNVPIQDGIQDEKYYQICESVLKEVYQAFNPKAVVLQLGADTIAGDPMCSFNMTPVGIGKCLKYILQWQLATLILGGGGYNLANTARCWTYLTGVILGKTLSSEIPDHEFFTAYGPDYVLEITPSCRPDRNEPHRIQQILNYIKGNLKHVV

[11] = system: Cal27CisR; test: Inhibition of class I/6 HDAC (unknown origin) in cisplatin resistant human Cal27CisR cells at < 10 uM using Boc-Lys(epsilon-Ac)-AMC as substrate preincubated with compound for 18 hrs followed by substrate addition and measured after 3 hrs by NOVOstar microplate reader analysis; assay type: cell-based
[12] = target: T4, Histone deacetylase 1 (Homo sapiens, UniProt Q13547); test: as §1, with “C-terminal 6-his/FLAG tagged” for “N-terminal GST-tagged”, “length human” for “length”, “HDAC1” for “human HDAC6”, “482” for “1215”, “at” for “at >”; settings: time 150.0 min
[13] = system: A2780; test: Cytotoxicity against human A2780 cells at < 100 uM assessed as reduction in cell viability incubated for 72 hrs by MTT assay; assay type: functional, cell-based
[14] = system: A2780; test: Inhibition of class I/6 HDAC (unknown origin) in human A2780 cells at < 10 uM using Boc-Lys(epsilon-Ac)-AMC as substrate preincubated with compound for 18 hrs followed by substrate addition and measured after 3 hrs by NOVOstar microplate reader analysis; assay type: cell-based
[15] = target: Histone deacetylase 2 (Homo sapiens) (UniProt Q92769); test: as §1, with “C-terminal FLAG tagged” for “N-terminal GST-tagged”, “length human” for “length”, “HDAC2” for “human HDAC6”, “488” for “1215”
[16] = target: T5, Protein deacetylase HDAC6 (Homo sapiens, UniProt Q9UBN7); test: as §1, with “cells” for “cells at > 10 uM”, “analysis” for “analysis relative to control”
T5 sequence (Q9UBN7 whole entry): T2 sequence (whole entry)

[17] = target: T6, Histone deacetylase 8 (Homo sapiens) (UniProt Q9BY41); test: Inhibition of recombinant HDAC8 (unknown origin) at > 10 uM using Bos-Lys(TFA)-AMC as substrate preincubated with compound for 5 mins and measured after 90 mins by NOVOstar microplate reader analysis relative to control; settings: time 95.0 min
T6 sequence (whole entry): T3 sequence (Q9BY41 whole entry)

[18] = system: A2780cisR; test: Cytotoxicity against cisplatin resistant human A2780 cisR cells at < 100 uM assessed as reduction in cell viability incubated for 72 hrs by MTT assay; assay type: functional, cell-based
[19] = target: T4, Histone deacetylase 1; test: Inhibition of FLAG tagged full length human HDAC1 expressed in HEK293T cells using acyl-H3K9 peptide as substrate preincubated with compound for 20 mins followed by substrate addition and measured after 120 mins by HPLC analysis
[20] = target: T3, Histone deacetylase 8; test: Inhibition of FLAG tagged full length human HDAC8 expressed in HEK293T cells using acyl-H3K9 peptide as substrate preincubated with compound for 20 mins followed by substrate addition and measured after 120 mins by HPLC analysis; assay type: cell-based
[21] = target: T1, Histone deacetylase 4; test: Inhibition of FLAG tagged full length human HDAC4 expressed in HEK293T cells using acyl-H3K9 peptide as substrate preincubated with compound for 20 mins followed by substrate addition and measured after 120 mins by HPLC analysis
[22] = system: MV4-11; test: cells; settings: Homo sapiens, MV4-11, 72 h
[23] = system: HL-60; test: cells; settings: Homo sapiens, HL-60, 72 h
[24] = system: A2780cisR; test: Induction of apoptosis in cisplatin resistant human A2780 cisR cells assessed as caspase-3/7 activation at 2 uM incubated for 48 hrs by capase3/7 green dye based analysis relative to control; assay type: functional
[25] = Cytotoxicity against human HEK293 cells assessed as reduction in cell viability incubated for 72 hrs by MTT assay; assay type: toxicity, cell-based
[26] = Induction of apoptosis in cisplatin resistant human Cal27CisR cells assessed as caspase-3/7 activation at 0.5 uM incubated for 48 hrs by capase3/7 green dye based analysis relative to control; assay type: functional
[27] = system: A2780; test: Induction of apoptosis in human A2780 cells assessed as caspase-3/7 activation at 2 uM incubated for 48 hrs by capase3/7 green dye based analysis relative to control; assay type: functional
[28] = system: CAL-27; test: Induction of apoptosis in human CAL-27 cells assessed as caspase-3/7 activation at 0.5 uM incubated for 48 hrs by capase3/7 green dye based analysis relative to control; assay type: functional
[29] = system: CAL-27; test: cells; settings: Homo sapiens, CAL-27, 72 h
[30] = cells; settings: Homo sapiens, Cal27CisR, 72 h
[31] = system: A2780cisR; test: cells; settings: Homo sapiens, 72 h

T4 sequence (Q13547 whole entry): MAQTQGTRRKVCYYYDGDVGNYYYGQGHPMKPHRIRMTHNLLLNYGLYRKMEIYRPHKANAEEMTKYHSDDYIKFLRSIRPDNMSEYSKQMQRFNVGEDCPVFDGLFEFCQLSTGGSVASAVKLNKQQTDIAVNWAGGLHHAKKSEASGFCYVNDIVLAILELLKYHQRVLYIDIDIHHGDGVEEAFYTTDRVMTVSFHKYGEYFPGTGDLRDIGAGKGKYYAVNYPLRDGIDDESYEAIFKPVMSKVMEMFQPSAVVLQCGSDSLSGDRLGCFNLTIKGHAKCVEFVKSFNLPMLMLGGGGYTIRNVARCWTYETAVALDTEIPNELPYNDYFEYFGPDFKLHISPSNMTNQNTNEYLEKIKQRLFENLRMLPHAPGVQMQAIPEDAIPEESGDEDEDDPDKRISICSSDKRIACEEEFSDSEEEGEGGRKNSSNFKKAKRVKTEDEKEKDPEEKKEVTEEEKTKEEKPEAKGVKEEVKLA
T1 sequence (P56524 whole entry): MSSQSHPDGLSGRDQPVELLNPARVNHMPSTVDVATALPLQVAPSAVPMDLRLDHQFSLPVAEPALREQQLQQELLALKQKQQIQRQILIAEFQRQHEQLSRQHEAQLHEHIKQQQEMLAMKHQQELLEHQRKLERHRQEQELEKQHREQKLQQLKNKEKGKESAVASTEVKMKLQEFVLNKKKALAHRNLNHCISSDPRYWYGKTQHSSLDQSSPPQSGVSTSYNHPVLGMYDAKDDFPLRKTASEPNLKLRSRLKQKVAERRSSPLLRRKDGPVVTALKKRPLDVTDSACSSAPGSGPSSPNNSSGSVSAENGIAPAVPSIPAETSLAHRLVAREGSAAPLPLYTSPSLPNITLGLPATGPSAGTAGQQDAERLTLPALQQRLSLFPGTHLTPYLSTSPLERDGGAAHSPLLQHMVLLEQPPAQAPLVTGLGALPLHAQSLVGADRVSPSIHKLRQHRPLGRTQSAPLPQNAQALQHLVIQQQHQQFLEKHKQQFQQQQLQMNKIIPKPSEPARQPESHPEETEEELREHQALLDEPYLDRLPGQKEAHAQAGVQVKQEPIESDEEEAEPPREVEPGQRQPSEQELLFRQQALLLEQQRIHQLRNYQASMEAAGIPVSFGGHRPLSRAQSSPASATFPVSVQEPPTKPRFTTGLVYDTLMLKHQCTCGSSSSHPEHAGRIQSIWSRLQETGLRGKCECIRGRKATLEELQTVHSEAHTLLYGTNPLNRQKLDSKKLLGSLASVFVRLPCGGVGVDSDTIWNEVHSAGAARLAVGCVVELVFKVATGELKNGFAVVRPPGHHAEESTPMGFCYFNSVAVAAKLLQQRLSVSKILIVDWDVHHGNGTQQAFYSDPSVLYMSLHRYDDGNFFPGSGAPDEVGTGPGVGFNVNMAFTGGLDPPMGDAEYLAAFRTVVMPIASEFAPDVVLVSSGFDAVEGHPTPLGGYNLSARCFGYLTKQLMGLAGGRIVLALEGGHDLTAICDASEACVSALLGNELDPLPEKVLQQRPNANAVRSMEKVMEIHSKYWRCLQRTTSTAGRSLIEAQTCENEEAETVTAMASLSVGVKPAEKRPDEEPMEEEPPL
Sequence of Histone deacetylase 2 (Homo sapiens) (Q92769 whole entry): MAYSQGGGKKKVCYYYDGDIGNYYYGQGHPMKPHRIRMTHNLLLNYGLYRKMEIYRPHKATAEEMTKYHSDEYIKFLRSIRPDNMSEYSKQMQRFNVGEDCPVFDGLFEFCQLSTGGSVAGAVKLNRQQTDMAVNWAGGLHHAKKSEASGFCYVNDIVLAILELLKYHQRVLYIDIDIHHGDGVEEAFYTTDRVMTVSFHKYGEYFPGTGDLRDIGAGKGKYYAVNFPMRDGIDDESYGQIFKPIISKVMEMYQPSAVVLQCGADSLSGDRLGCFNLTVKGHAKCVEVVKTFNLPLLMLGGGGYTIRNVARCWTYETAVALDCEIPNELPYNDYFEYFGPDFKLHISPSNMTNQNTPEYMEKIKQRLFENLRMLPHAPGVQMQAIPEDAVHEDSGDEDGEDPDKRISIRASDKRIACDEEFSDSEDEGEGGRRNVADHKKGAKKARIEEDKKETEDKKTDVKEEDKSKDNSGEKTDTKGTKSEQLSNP
Sequence of Histone deacetylase 3 (O15379 whole entry): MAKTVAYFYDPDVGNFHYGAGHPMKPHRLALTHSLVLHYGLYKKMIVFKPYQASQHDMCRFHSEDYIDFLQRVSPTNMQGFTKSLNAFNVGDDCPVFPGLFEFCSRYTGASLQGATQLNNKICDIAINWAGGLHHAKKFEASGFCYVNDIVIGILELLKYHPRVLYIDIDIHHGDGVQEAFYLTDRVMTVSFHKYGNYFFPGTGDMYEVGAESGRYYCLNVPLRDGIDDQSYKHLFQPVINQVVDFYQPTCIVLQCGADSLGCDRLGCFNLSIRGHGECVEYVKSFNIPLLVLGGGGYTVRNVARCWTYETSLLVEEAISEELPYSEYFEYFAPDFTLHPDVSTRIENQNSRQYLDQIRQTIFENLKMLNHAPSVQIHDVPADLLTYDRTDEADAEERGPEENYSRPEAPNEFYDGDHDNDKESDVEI

logD [1]: 3.16
IC50 [2]: > 6.67 µM
SMILES: CN(C)c1ccc(C(=O)N(CC(=O)NCc2ccccc2)Cc2ccc(C(=O)Nc3cc(-c4ccncc4)ccc3N)cc2)cc1

IC50 [5]: > 10 µM
inhibition [6]: < 25%
inhibition [7]: 32%
IC50 [10]: > 10 µM
inhibition [12]: 37%
inhibition [15]: < 25%
IC50 [16]: > 10 µM
inhibition [17]: < 25%
SMILES: CN(C)c1ccc(C(=O)N(CC(=O)NCc2ccccc2)Cc2ccc(C(=O)NNC/C=C/c3ccccc3)cc2)cc1
Activity [3]: inactive
inhibition [4]: inactive
Activity [8]: inactive
inhibition [9]: inactive
inhibition [11]: inactive
Activity [13]: inactive
inhibition [14]: inactive
Activity [18]: inactive

IC50 [19]: > 100 µM
IC50 [20]: > 100 µM
IC50 [21]: > 100 µM
SMILES: CCCCCCCCCCCCCCCCNNC(=O)c1cccs1

IC50 [22]: 410 nM
IC50 [23]: 939 nM
IC50 [29]: 2960 nM
IC50 [30]: 3.63 µM
IC50 [31]: 5.57 µM
SMILES: Nc1ccccc1NC(=O)c1ccc(CNC(=O)OCc2cccnc2)cc1 [ENTINOSTAT]
Activity [24]: 15%
IC50 at 72 h [25]: 7.11 µM
Activity [26]: <5%
Activity [27]: 10%
Activity [28]: <5%
